In ChEMBL document CHEMBL1944587, “4-Piperidin-4-ylidenemethyl-benzamides as δ-opioid receptor agonists for CNS indications: identifying clinical candidates” (Bioorg Med Chem Lett, 2012):

Test: physchem
Conditions: octanol/water

Row | SMILES | logD
1 | O=C(c1ccc(C(=C2CCN(Cc3cscn3)CC2)c2cccc3cccnc23)cc1)N1CCCC1 | 2.8
2 | CN(C)C(=O)c1ccc(C(=C2CCN(Cc3cscn3)CC2)c2cccc3cccnc23)cc1 | 2.3
3 | O=C(c1ccc(C(=C2CCN(Cc3cscn3)CC2)c2cccc3cccnc23)cc1)N1CCOCC1 | 2.1
4 | CN1CCN(C(=O)c2ccc(C(=C3CCN(Cc4cscn4)CC3)c3cccc4cccnc34)cc2)CC1 | 2
5 | O=C(c1ccc(C(=C2CCN(Cc3cscn3)CC2)c2cccc3cccnc23)cc1)N1CCC(O)CC1 | 1.9
